According to patent US8318504B2, “MRP2 efflux pathway prognostic method” (priority 2009, dated 2012):

Tests used:
NTCP = molecular target: T1, NTCP (Homo sapiens, UniProt Q14973); assay: Uptake of TC and CLF into CHO cells stably expressing NTCP; assay type: cell-based; details: 1 μmol/L CLF, 1 and 5 minutes, fluorescence analysis and quantitative determination
T1 construct: the coding region ligated into pcDNA5/FRT; expressed in transfected cells
T1 sequence (Q14973 1-349): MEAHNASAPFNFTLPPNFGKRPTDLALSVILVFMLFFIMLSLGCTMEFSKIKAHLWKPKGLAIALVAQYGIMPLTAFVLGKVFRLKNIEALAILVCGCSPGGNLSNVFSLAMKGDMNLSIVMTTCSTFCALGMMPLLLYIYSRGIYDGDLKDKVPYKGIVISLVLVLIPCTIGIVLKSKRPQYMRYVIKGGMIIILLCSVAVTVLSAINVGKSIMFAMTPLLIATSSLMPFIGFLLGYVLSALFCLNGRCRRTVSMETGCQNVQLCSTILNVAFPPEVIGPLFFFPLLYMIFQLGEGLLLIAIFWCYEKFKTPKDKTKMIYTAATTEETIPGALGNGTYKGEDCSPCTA
Protocol: cDNA for human NTCP [Hagenbuch et al., J Clin Invest 1994 March; 93(3): 1326-1331] was cut with EcoRV and HindI and the coding region ligated into pcDNA5/FRT (Invitrogen, Life-Technologies, Carlsbad, Calif.). CHO FlpIn cells (Invitrogen, Life-Technologies) were transfected with the resulting construct using Lipofectamine® 2000 (Invitrogen, Life-Technologies). Stably transfected cells were selected with 550 μg Hygromycin-B in HAM-F12 medium (Gibco, Invitrogen, Life-Technologies). Transfected cells were cloned with the limiting dilution method. […] To further characterize the cloned cells, immunofluorescence localization of NTCP using a polyclonal antibody against NTCP [Kullak-Ublick G et al., Gastroenterology 1997 October; 113(4):1295-1305] was performed as described by Huber R D et al. [Am J Physiol Cell Physiol 2007 February; 292(2):[…]-[…]]. CHO cells expressing OATP1B1, OATP1B3 and OATP2B1 were described previously [Treiber et al., DMD 35:1400-1407, 2007]. For all transport experiments, cells grown on 3 cm culture dishes were cultured for 24 hours in media supplemented with 5 mmol/L sodium-butyrate to increase expression levels of transfected transporters [Palermo D P et al., J Biotechnol 1991 June; 19(1):35-47]. • Transport experiments with uptake of radioactively labeled substrates: These experiments were performed as described by Huber R D et al. […] Uptake was performed in the same buffers as for the radioactive substrates above. For visualization of CLF uptake, cells were immediately inspected with a Leica-DM-IRBE-inverted-microcope (Leica-Microsystems, Wetzlar, Germany) equipped with a Hamamatsu-ORKA-ER-camera (Hamamatsu-Photonoics, Japan). To determine uptake of CLF, cells were solubilized by the addition of 2 ml 1% (w/v) Triton-X-100. After complete solubilization, 1.5 ml was used to measure fluorescence in a Perkin-Elmer LS-5 luminescence-spectrometer set at λexe 486 nm (slit 10 nm) and λem 520 nm (slit 5 nm). Protein was determined with the bicinchoninic acid method using a kit from Interchim (Montfuçon, France). […]

Abcc2 and Abcc3 = assay: Plasma clearance of CLF in wild type, Abcc2-/- and Abcc3-/- mice; assay type: in vivo; details: single injection of 100 μL 2 mmol/L CLF in the tail vein
Protocol: Wild type, Abcc3^−/− and Abcc2^−/− mice received 100 μL of 2 mmol/L CLF by injection in the tail vein. After the indicated time points blood was drawn. Data are expressed as the mean percentage of the initial CLF level at 2 minutes. Significance was tested using two-sided Student's t-test: *P<0.05 for Abcc2−/− vs wild type mice.
Abcc2^−/− mice (against a Friend virus B-type (FVB) background) were bred at the National Cancer Institute (Amsterdam, The Netherlands). Production and characterization of the Abcc2^−/− mice was as described by Vlaming et al. [J Pharmacol Exp Ther 2006 July; 318(1):319-327]. Wild type and Abcc3^−/− mice (against an FVB background) were bred at the animal institute of the Academic Medical Center. Production and characterization of the Abcc3^−/− mice was as described by Zelcer et al. [J Hepatol 2006 April; 44(4):768-775].
Male mice were housed in a pathogen-free animal facility on a 12 hours light-dark cycle. Mice were anesthetized with a combination of Hypnorm (VetaPharma, UK; 11.8 mg/kg fluanisone and 0.37 mg/kg fentanyl-citrate) and diazepam (Centrafarm, Etten-Leur, The Netherlands; 5.9 mg/kg valium). Body temperature was maintained at 36±1° C. on thermostatted heating pads. […] Blood samples were deproteinised by addition of two volumes methanol and the amount CLF in the supernatant was quantitated by measurement of fluorescence as described above.

For CC(CCC(=O)NC(CCCCNC(=S)Nc1ccc(-c2c3ccc(=O)cc-3oc3cc(O)ccc23)c(C(=O)O)c1)C(=O)O)C1CCC2C3C(O)CC4CC(O)CCC4(C)C3CC(O)C12C (stereo not drawn) [CLF, cholyl lysyl fluorescein], the “sodium-dependent uptake of CLF mediated by NTCP” value (NTCP) was “no sodium-dependent uptake”, the “Plasma clearance of CLF in Abcc2-/- mice in comparison with wild type mice” value (Abcc2 and Abcc3) was “strongly impaired” and the “Plasma clearance of CLF in Abcc3-/- mice in comparison with wild type mice” value (Abcc2 and Abcc3) was “not affected”.
